# Laboratory results: paper PMC4914440 (Pharmacological research, 2016)
# Legend:
# [1] = tested on: dopamine receptors; conditions: 10 μM; cited from earlier work
# [2] = biological target: m5-HT3 (5-HT3A receptor) (Mus musculus, UniProt P23979); assay: Radioligand displacement by a fixed drug concentration, [3H]BRL-43694; conditions: 10 μM efavirenz
# [3] = biological target: r5-HT6 (Rattus norvegicus, UniProt P31388); assay: Radioligand displacement by a fixed drug concentration, [3H]LSD; conditions: 10 μM efavirenz
# [4] = biological target: h5-HT5A (Homo sapiens, UniProt P47898); assay: as above; conditions: 10 μM efavirenz
# [5] = tested on: untransfected CHO cells; assay: Intracellular calcium assay, control cells; assay type: cell-based; conditions: data not shown
# [6] = tested on: HIV-1; conditions: cited from earlier work
# [7] = biological target: T1, 5-HT3A receptors (Mus musculus, UniProt P23979); assay: Whole cell electrophysiology, 5-HT-induced currents, HEK293 cells; conditions: for reversibility of inhibition: 2–3 min washout, data not shown
# T1 sequence (P23979 24-489): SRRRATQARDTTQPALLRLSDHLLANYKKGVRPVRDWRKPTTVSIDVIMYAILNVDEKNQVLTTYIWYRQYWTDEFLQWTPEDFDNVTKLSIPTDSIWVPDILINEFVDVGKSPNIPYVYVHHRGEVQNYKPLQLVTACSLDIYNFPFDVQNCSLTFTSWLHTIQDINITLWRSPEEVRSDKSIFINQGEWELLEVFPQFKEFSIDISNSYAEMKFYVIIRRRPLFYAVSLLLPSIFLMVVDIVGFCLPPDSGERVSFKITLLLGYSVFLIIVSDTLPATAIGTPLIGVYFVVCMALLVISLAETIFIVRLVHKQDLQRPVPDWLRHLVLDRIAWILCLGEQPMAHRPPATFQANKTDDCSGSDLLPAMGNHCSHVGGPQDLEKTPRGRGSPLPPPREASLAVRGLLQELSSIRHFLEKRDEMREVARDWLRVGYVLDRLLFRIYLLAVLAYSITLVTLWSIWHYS
# h5-HT5A, sequence (P47898 whole entry): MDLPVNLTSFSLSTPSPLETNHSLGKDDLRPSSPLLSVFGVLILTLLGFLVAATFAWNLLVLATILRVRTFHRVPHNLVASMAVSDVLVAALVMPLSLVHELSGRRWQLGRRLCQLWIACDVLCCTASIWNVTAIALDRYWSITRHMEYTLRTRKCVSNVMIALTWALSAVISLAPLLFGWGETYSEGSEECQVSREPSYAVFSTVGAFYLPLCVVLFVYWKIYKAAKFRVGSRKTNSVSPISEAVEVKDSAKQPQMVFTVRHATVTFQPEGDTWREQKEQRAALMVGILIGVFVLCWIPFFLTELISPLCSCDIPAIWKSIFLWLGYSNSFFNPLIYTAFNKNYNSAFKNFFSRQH
# r5-HT6, sequence (P31388 whole entry): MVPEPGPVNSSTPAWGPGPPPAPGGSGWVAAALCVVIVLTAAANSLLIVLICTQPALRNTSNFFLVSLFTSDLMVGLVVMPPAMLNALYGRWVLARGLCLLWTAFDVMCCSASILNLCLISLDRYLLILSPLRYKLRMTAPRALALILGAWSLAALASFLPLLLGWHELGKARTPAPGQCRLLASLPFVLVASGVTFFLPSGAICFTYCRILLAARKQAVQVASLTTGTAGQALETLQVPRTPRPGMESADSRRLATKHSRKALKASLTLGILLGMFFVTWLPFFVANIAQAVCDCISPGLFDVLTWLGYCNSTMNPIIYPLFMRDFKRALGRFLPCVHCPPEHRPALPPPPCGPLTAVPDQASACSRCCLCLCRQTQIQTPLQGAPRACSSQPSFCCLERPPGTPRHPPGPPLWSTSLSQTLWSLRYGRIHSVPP
smiles,measurement,setting,value
"O=C1Nc2ccc(Cl)cc2[C@@](C#CC2CC2)(C(F)(F)F)O1 [efavirenz, (4S)-6-chloro-4-(2-cyclopropylethynyl)-4-(trifluoromethyl)-2,4-dihydro-1H-3,1-benzoxazin-2-one]",interaction,[1],did not have significant interactions
same,displacement of [3H]-granisetron binding,[2],did not significantly displace
same,displacement of specifically bound radioligand,[3],≥ 75%
same,interaction (radioligand displacement),[4],less pronounced or no detectable interaction
same,Gq-mediated response,[5],No Gq-mediated response
same,plasma levels needed to keep HIV-1 suppressed,[6],1 to 4 µg/mL
same,plasma levels resulting in NPAE,[6],greater than 2.74 μg/mL
same,plasma levels resulting in virologic failure,[6],< 1 μg/mL
same,IC50,[7],4.9 ± 0.7 µM
same,Hill coefficient,[7]; 0.6 μM 5-HT (EC30),1.2 ± 0.19
same,effect alone,"[7]; 10 μM, n = 5, data not shown",had no effect
same,inhibition of steady-state currents,[7]; 30 μM,complete inhibition
same,reversibility of inhibition,[7]; 30 μM,partially recovered
same,reversibility of inhibition,[7]; up to 10 μM,completely reversible
